Source: PubChem BioAssay (NCI)
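1) Cells in 96-well plates. 2) Compound, 48 h, 5 concentrations. 3) Linear interpolation between surrounding doses. 4) Unreached endpoint = highest concentration. Here, GI50 denotes the concentration required for 50% inhibition of growth. The concentration for full growth arrest is given as TGI.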 Where a SMILES comes first, the peptide text is derived from it. [ ]: non-standard residue; d: D form. pGlu = O=C1CC[CH](C(=O)O)N1

Experiments:
Test in all cases: inhibition of tumour cell growth, NCI panel, 48 h
A549 NSCLC = test system: A549 NSCLC
ACHN renal = test system: ACHN renal
DU-145 prostate = test system: DU-145 prostate
HCC-2998 colon = test system: HCC-2998 colon
HS 578T breast = test system: HS 578T breast
IGROV1 ovarian = test system: IGROV1 ovarian
KM12 colon = test system: KM12 colon
NCI-H522 lung = test system: NCI-H522 lung
PC-3 prostate = test system: PC-3 prostate
RPMI-8226 leukemia = test system: RPMI-8226 leukemia

With `CCN(Cc1cc(Nc2nc(C)cn3c(-c4cn[nH]c4)cnc23)sn1)C(C)(C)CO` the GI50 (A549 NSCLC) was 0.0543 µM, the TGI (A549 NSCLC) was 2.21 µM and the GI50 (ACHN renal) was 0.0306 µM. The TGI (ACHN renal) was 11.9 µM, the GI50 (DU-145 prostate) was 0.0822 µM and the TGI (DU-145 prostate) was 6.58 µM. For the same compound, the GI50 (HCC-2998 colon) was 0.0741 µM, the TGI (HCC-2998 colon) was 4.56 µM and the GI50 (HS 578T breast) was 0.0227 µM. The TGI (HS 578T breast) was 0.0855 µM, the GI50 (IGROV1 ovarian) was 0.0257 µM and the TGI (IGROV1 ovarian) was 12.9 µM. The GI50 (KM12 colon) was 0.0328 µM, the TGI (KM12 colon) was 10.4 µM and the GI50 (NCI-H522 lung) was 0.0227 µM. It also gave a TGI (NCI-H522 lung) of 2.26 µM, a GI50 (PC-3 prostate) of 0.0219 µM and a TGI (PC-3 prostate) of 9.66 µM. The GI50 (RPMI-8226 leukemia) was 2.41 µM and the TGI (RPMI-8226 leukemia) was 10.1 µM.

Work on `COc1cc(/C=C\c2cc(OC)c(OC)c(OC)c2)cc(NC(=O)/C=C/c2cc(OC)c(OC)c(OC)c2)c1OC` yielded a GI50 (A549 NSCLC) of 4.49 µM, a TGI (A549 NSCLC) of over 100 µM and a GI50 (ACHN renal) of 8.38 µM. For the same compound, the TGI (ACHN renal) was over 100 µM, the GI50 (DU-145 prostate) was over 100 µM and the TGI (DU-145 prostate) was over 100 µM. For the same compound, the GI50 (HCC-2998 colon) was over 100 µM, the TGI (HCC-2998 colon) was over 100 µM and the GI50 (HS 578T breast) was over 100 µM. For the same compound, the TGI (HS 578T breast) was over 100 µM, the GI50 (IGROV1 ovarian) was 6.61 µM and the TGI (IGROV1 ovarian) was over 100 µM. It also gave a GI50 (KM12 colon) of 3.42 µM, a TGI (KM12 colon) of over 100 µM and a GI50 (NCI-H522 lung) of 2.73 µM. The TGI (NCI-H522 lung) was over 100 µM, the GI50 (PC-3 prostate) was 3.02 µM and the TGI (PC-3 prostate) was over 100 µM. For the same compound, the GI50 (RPMI-8226 leukemia) was 1.36 µM and the TGI (RPMI-8226 leukemia) was over 100 µM.

`O=C(Nc1ccc([As](=O)(O)O)cc1)Nc1cccc(Cl)c1Cl` gave a TGI (A549 NSCLC) of over 100 µM, a TGI (ACHN renal) of over 100 µM and a TGI (DU-145 prostate) of over 100 µM. It also gave a TGI (HCC-2998 colon) of over 100 µM, a TGI (HS 578T breast) of 84.8 µM and a TGI (IGROV1 ovarian) of over 100 µM. The TGI (KM12 colon) was over 100 µM, the TGI (NCI-H522 lung) was over 100 µM and the TGI (PC-3 prostate) was over 100 µM. The TGI (RPMI-8226 leukemia) was over 100 µM.

In the case of `C=C1C(=O)O[C@H]2[C@H]1CC/C(CNC(=O)/C=C/c1cc(OC)c(OC)c(OC)c1)=C\CC[C@@]1(C)O[C@@H]21`, the GI50 (A549 NSCLC) is reported as 8.04 µM, the TGI (A549 NSCLC) is reported as 23.7 µM and the GI50 (ACHN renal) is reported as 1.27 µM. The TGI (ACHN renal) was 2.89 µM, the GI50 (DU-145 prostate) was 4.95 µM and the TGI (DU-145 prostate) was 17.3 µM. It also gave a GI50 (HCC-2998 colon) of 2.95 µM, a TGI (HCC-2998 colon) of 6.97 µM and a GI50 (HS 578T breast) of 4.54 µM. The TGI (HS 578T breast) was 27.9 µM, the GI50 (IGROV1 ovarian) was 3.22 µM and the TGI (IGROV1 ovarian) was 13.9 µM. The GI50 (KM12 colon) was 7.62 µM, the TGI (KM12 colon) was 21.1 µM and the GI50 (NCI-H522 lung) was 0.232 µM. It also gave a TGI (NCI-H522 lung) of 1.1 µM, a GI50 (PC-3 prostate) of 6.24 µM and a TGI (PC-3 prostate) of 20 µM. It also gave a GI50 (RPMI-8226 leukemia) of 1.59 µM and a TGI (RPMI-8226 leukemia) of 5.47 µM.

Compound `C=C(C)[C@@H]1CC[C@]2(C)CC[C@]3(C)[C@H](CC[C@@H]4[C@@]5(C)CC[C@H](O)C(C)(C)[C@@H]5CC[C@]43C)[C@@H]12` has a TGI (A549 NSCLC) of over 100 µM, a TGI (ACHN renal) of over 100 µM and a TGI (DU-145 prostate) of over 100 µM. The TGI (HCC-2998 colon) was over 100 µM, the TGI (HS 578T breast) was 61.7 µM and the TGI (IGROV1 ovarian) was over 100 µM. The TGI (KM12 colon) was over 100 µM, the TGI (NCI-H522 lung) was 55.7 µM and the TGI (PC-3 prostate) was 98.4 µM. The TGI (RPMI-8226 leukemia) was over 100 µM.

Compound `Oc1c(-c2nnc(-c3ccccc3Cl)o2)sc2nnc(-c3ccccc3)c(-c3ccccc3)c12` has a GI50 (A549 NSCLC) of 4.31 µM, a TGI (A549 NSCLC) of 61.5 µM and a GI50 (ACHN renal) of 3.46 µM. For the same compound, the TGI (ACHN renal) was 89.7 µM, the GI50 (DU-145 prostate) was 8.26 µM and the TGI (DU-145 prostate) was over 100 µM. For the same compound, the GI50 (HCC-2998 colon) was 5.05 µM, the TGI (HCC-2998 colon) was over 100 µM and the GI50 (HS 578T breast) was 3.78 µM. For the same compound, the TGI (HS 578T breast) was over 100 µM, the GI50 (IGROV1 ovarian) was 2.47 µM and the TGI (IGROV1 ovarian) was 8.78 µM. The GI50 (KM12 colon) was 4.36 µM, the TGI (KM12 colon) was 51.3 µM and the GI50 (NCI-H522 lung) was 3.59 µM. The TGI (NCI-H522 lung) was 23.5 µM, the GI50 (PC-3 prostate) was 3.15 µM and the TGI (PC-3 prostate) was over 100 µM. It also gave a GI50 (RPMI-8226 leukemia) of 2.92 µM and a TGI (RPMI-8226 leukemia) of over 100 µM.

Compound `CN(Cc1ccccc1)C(=NC#N)N(Cc1ccccc1)Cc1ccccc1` has a TGI (A549 NSCLC) of over 100 µM, a TGI (ACHN renal) of 78.3 µM and a TGI (DU-145 prostate) of over 100 µM. For the same compound, the TGI (HCC-2998 colon) was over 87.1 µM, the TGI (HS 578T breast) was over 100 µM and the TGI (IGROV1 ovarian) was over 80.6 µM. The TGI (KM12 colon) was 44.4 µM, the TGI (NCI-H522 lung) was 55.5 µM and the TGI (PC-3 prostate) was 39.5 µM. The TGI (RPMI-8226 leukemia) was 55.4 µM.

Compound `O=C1C(Cl)=C(Nc2cccc(Cl)c2)C(=O)N1Cc1ccc(Cl)cc1` has a GI50 (A549 NSCLC) of 3.71 µM, a TGI (A549 NSCLC) of 21 µM and a GI50 (ACHN renal) of 1.39 µM. It also gave a TGI (ACHN renal) of 15 µM, a GI50 (DU-145 prostate) of 2.72 µM and a TGI (DU-145 prostate) of 11.4 µM. The GI50 (HCC-2998 colon) was 1.16 µM, the TGI (HCC-2998 colon) was 4.72 µM and the GI50 (HS 578T breast) was 0.913 µM. It also gave a TGI (HS 578T breast) of 11.1 µM, a GI50 (IGROV1 ovarian) of 1.19 µM and a TGI (IGROV1 ovarian) of over 39.3 µM. The GI50 (KM12 colon) was 2.83 µM, the TGI (KM12 colon) was 14.2 µM and the GI50 (NCI-H522 lung) was 0.916 µM. It also gave a TGI (NCI-H522 lung) of 8.21 µM, a GI50 (PC-3 prostate) of 1.32 µM and a TGI (PC-3 prostate) of 11.9 µM. For the same compound, the GI50 (RPMI-8226 leukemia) was 0.266 µM and the TGI (RPMI-8226 leukemia) was 3.37 µM.

Work on `CC(=O)NC1C(OC[C@@H](CC(=O)N[C@@H](CC(=O)O)CC(=O)N[C@H](CC(=O)N[C@@H](CCCN)CC(=O)N[C@@H](CCCN)CC(=O)N[C@H](CC(N)=O)C(C)C)C(C)C)NC(=O)C[C@@H](N)C(C)C)OC(CO)C(O)C1O` (stereo not given in full) yielded a GI50 (A549 NSCLC) of over 100 µM, a TGI (A549 NSCLC) of over 100 µM and a GI50 (ACHN renal) of over 100 µM. The TGI (ACHN renal) was over 100 µM, the GI50 (DU-145 prostate) was over 100 µM and the TGI (DU-145 prostate) was over 100 µM. The GI50 (HCC-2998 colon) was over 100 µM, the TGI (HCC-2998 colon) was over 100 µM and the GI50 (HS 578T breast) was over 100 µM. For the same compound, the TGI (HS 578T breast) was over 100 µM, the GI50 (IGROV1 ovarian) was over 100 µM and the TGI (IGROV1 ovarian) was over 100 µM. It also gave a GI50 (KM12 colon) of over 100 µM, a TGI (KM12 colon) of over 100 µM and a GI50 (NCI-H522 lung) of over 100 µM. For the same compound, the TGI (NCI-H522 lung) was over 100 µM, the GI50 (PC-3 prostate) was over 100 µM and the TGI (PC-3 prostate) was over 100 µM. For the same compound, the GI50 (RPMI-8226 leukemia) was over 100 µM and the TGI (RPMI-8226 leukemia) was over 100 µM.

In the case of `CCNC(=O)C1CCCN1C(=O)C(CCCN=C(N)N)NC(=O)C(CC(C)C)NC(=O)C(CC(C)C)NC(=O)C(Cc1ccc(O)cc1)NC(=O)C(CO)NC(=O)C(Cc1c[nH]c2ccccc12)NC(=O)C(Cc1cnc[nH]1)NC(=O)C1CCC(=O)N1` (stereo not given) ([pGlu]HWSYLLRP-NHEt; configuration not given here), the GI50 (A549 NSCLC) is reported as over 100 µM, the TGI (A549 NSCLC) is reported as over 100 µM and the GI50 (ACHN renal) is reported as over 100 µM. For the same compound, the TGI (ACHN renal) was over 100 µM, the GI50 (DU-145 prostate) was over 100 µM and the TGI (DU-145 prostate) was over 100 µM. For the same compound, the GI50 (HCC-2998 colon) was over 100 µM, the TGI (HCC-2998 colon) was over 100 µM and the GI50 (HS 578T breast) was over 100 µM. The TGI (HS 578T breast) was over 100 µM, the GI50 (IGROV1 ovarian) was over 100 µM and the TGI (IGROV1 ovarian) was over 100 µM. It also gave a GI50 (KM12 colon) of over 100 µM, a TGI (KM12 colon) of over 100 µM and a GI50 (NCI-H522 lung) of over 100 µM. The TGI (NCI-H522 lung) was over 100 µM, the GI50 (PC-3 prostate) was over 100 µM and the TGI (PC-3 prostate) was over 100 µM. For the same compound, the GI50 (RPMI-8226 leukemia) was 74.3 µM and the TGI (RPMI-8226 leukemia) was over 100 µM.
